Measurements as given in ChEMBL document CHEMBL2321769, “Regioselective synthesis of 5- and 6-methoxybenzimidazole-1,3,5-triazines as inhibitors of phosphoinositide 3-kinase” (Bioorg Med Chem Lett, 2013).

Tests used:
[1] = target: Phosphatidylinositol 4,5-bisphosphate 3-kinase catalytic subunit gamma isoform (Homo sapiens, UniProt P48736); assay: Inhibition of PI3Kgamma (unknown origin) expressed in SF21 cells using phosphatidylinositol as substrate after 60 mins by Kinase-Glo assay
[2] = target: Phosphatidylinositol 4,5-bisphosphate 3-kinase catalytic subunit beta isoform (Homo sapiens, UniProt P42338); assay: Inhibition of PI3Kbeta (unknown origin) expressed in SF21 cells using phosphatidylinositol as substrate after 60 mins by Kinase-Glo assay
Sequence of Phosphatidylinositol 4,5-bisphosphate 3-kinase catalytic subunit beta isoform (P42338 whole entry, canonical isoform): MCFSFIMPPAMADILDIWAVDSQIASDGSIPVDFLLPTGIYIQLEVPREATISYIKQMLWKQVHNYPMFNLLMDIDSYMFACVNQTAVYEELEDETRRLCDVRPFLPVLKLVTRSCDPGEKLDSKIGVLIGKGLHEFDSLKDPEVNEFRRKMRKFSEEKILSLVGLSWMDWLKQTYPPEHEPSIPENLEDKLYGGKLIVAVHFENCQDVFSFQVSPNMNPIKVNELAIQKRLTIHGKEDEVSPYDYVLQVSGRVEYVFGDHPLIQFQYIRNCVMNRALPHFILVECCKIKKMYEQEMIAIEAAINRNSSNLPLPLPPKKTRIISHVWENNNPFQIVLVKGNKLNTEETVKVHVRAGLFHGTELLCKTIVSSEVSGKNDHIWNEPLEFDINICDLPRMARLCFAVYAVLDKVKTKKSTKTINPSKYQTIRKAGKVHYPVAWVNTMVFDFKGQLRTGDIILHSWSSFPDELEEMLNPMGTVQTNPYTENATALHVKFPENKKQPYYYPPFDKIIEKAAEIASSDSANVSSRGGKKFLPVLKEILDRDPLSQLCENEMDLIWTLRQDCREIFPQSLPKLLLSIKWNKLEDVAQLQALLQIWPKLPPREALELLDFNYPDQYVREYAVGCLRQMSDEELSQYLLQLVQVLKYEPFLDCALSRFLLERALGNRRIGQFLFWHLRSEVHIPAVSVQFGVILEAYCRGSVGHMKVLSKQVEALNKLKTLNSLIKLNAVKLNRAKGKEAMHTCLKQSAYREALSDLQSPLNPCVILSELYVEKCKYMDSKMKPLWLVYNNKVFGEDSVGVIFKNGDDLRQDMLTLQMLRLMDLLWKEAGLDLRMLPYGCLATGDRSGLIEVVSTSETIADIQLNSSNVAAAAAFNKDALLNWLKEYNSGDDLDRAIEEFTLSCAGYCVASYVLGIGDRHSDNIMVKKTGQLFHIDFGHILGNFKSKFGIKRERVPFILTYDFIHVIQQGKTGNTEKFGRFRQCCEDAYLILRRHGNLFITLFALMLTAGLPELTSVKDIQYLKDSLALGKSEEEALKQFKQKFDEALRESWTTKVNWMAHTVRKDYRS

[3] = target: Phosphatidylinositol 4,5-bisphosphate 3-kinase catalytic subunit alpha isoform (Homo sapiens, UniProt P42336); assay: Inhibition of PI3Kalpha (unknown origin) expressed in SF21 cells using phosphatidylinositol as substrate after 60 mins by Kinase-Glo assay
Sequence of Phosphatidylinositol 4,5-bisphosphate 3-kinase catalytic subunit alpha isoform (P42336 whole entry, canonical isoform): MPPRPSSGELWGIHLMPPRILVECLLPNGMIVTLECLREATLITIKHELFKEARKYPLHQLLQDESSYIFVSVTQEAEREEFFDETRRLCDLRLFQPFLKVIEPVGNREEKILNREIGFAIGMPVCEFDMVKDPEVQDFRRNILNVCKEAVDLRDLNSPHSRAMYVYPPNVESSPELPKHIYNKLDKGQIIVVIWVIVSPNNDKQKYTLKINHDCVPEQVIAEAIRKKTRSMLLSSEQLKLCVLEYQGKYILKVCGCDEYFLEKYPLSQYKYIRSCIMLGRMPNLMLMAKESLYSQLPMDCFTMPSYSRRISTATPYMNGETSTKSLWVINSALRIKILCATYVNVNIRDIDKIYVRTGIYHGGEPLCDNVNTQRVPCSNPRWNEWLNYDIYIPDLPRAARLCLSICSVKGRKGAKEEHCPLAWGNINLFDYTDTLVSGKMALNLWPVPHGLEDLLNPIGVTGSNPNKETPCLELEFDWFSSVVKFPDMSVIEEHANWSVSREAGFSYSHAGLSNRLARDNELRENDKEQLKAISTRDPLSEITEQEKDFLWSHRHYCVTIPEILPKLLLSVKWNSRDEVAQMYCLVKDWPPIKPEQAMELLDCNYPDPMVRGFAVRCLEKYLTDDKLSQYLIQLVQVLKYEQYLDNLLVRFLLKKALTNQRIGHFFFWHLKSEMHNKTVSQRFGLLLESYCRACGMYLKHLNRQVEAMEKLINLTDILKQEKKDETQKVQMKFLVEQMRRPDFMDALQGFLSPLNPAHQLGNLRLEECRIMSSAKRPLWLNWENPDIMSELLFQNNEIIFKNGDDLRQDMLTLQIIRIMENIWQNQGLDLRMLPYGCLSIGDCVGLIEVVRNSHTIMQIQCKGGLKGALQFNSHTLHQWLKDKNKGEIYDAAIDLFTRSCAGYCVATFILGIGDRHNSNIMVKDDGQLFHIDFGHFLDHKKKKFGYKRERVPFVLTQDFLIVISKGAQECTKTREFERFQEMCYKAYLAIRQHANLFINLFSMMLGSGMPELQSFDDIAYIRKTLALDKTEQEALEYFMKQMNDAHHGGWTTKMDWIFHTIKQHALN

[4] = target: T1, Phosphatidylinositol 4,5-bisphosphate 3-kinase catalytic subunit delta isoform (Homo sapiens, UniProt O00329); assay: Inhibition of PI3Kdelta (unknown origin) expressed in SF21 cells using phosphatidylinositol as substrate after 60 mins by Kinase-Glo assay
T1 sequence (O00329 whole entry): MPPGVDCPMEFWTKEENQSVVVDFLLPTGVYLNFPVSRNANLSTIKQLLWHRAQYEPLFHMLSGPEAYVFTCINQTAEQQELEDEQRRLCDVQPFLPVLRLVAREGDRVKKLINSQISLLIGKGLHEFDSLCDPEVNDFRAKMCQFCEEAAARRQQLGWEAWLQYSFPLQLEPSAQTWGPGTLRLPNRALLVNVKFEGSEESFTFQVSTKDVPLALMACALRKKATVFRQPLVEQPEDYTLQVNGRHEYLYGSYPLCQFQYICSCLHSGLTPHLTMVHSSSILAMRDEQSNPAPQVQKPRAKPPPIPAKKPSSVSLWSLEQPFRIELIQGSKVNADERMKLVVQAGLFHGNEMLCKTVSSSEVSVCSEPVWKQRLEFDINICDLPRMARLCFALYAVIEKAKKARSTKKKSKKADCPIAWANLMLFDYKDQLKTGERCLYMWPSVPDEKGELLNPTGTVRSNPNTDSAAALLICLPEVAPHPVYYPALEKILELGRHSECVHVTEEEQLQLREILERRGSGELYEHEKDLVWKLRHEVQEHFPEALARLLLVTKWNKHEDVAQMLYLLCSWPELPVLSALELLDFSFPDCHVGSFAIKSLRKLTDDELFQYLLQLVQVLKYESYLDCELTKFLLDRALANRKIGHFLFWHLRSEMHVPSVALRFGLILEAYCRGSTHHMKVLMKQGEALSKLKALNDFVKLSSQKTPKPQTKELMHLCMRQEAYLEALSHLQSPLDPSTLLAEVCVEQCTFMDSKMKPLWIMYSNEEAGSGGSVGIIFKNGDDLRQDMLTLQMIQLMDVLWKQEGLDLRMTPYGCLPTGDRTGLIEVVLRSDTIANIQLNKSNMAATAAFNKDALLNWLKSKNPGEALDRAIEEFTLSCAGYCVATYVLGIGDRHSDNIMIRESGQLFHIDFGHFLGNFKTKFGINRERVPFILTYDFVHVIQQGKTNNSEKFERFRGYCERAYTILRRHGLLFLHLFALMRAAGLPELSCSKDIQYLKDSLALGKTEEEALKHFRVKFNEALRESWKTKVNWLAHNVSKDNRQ

Sequence of Phosphatidylinositol 4,5-bisphosphate 3-kinase catalytic subunit gamma isoform (P48736 whole entry, canonical isoform): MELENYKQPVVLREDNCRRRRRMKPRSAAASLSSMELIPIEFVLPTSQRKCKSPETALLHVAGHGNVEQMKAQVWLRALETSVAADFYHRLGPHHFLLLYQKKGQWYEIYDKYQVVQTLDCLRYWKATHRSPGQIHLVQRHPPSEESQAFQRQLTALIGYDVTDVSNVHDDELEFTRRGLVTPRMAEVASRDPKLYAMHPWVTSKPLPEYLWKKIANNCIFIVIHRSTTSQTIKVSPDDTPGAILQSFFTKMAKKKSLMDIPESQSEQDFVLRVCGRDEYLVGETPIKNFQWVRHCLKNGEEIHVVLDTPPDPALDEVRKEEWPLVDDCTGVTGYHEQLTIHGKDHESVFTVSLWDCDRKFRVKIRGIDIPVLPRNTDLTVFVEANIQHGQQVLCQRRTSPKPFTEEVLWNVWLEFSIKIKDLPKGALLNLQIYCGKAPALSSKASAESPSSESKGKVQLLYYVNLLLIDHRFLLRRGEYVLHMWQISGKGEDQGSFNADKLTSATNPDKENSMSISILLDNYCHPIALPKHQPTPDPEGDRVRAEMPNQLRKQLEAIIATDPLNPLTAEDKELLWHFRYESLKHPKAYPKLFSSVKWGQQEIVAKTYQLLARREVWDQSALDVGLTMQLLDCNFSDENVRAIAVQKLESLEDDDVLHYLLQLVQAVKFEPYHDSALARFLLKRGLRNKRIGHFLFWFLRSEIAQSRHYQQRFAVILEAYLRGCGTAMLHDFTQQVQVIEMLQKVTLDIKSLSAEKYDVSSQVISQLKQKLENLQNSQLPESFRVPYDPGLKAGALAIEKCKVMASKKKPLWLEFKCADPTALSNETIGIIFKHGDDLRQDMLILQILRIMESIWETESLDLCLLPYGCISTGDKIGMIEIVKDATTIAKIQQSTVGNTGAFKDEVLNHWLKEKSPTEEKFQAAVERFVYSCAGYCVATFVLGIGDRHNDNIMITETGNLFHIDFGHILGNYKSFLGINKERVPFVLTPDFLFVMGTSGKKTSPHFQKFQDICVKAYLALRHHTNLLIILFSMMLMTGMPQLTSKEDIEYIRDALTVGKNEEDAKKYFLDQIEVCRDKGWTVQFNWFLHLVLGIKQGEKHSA

IC50 [1]	IC50 [2]	IC50 [3]	IC50 [4]	SMILES
> 10000 nM	> 10000 nM	> 10000 nM	1120 nM	COc1ccc2c(c1)nc(C(C)C)n2-c1nc(N2CCOCC2)nc(N2CCOCC2)n1
1860 nM	523 nM	290 nM	187 nM	Cc1nc2ccccc2n1-c1nc(N2CCOCC2)nc(N2CCOCC2)n1
> 10000 nM	726 nM	1050 nM	423 nM	COc1ccc2nc(C(C)C)n(-c3nc(N4CCOCC4)nc(N4CCOCC4)n3)c2c1
2530 nM	419 nM	431 nM	128 nM	CC(C)c1nc2ccccc2n1-c1nc(N2CCOCC2)nc(N2CCOCC2)n1

Continued, compound first:

SMILES	IC50 [1]	IC50 [2]	IC50 [3]	IC50 [4]
COc1ccc2c(c1)nc(C)n2-c1nc(N2CCOCC2)nc(N2CCOCC2)n1	> 10000 nM	> 10000 nM	9200 nM	2770 nM
COc1ccc2nc(C)n(-c3nc(N4CCOCC4)nc(N4CCOCC4)n3)c2c1	> 10000 nM	1790 nM	823 nM	458 nM
COc1ccc2c(c1)nc(C(F)F)n2-c1nc(N2CCOCC2)nc(N2CCOCC2)n1	> 10000 nM	> 10000 nM	> 5000 nM	> 1000 nM
COc1ccc2nc(C(F)F)n(-c3nc(N4CCOCC4)nc(N4CCOCC4)n3)c2c1	> 10000 nM	214 nM	375 nM	110 nM
